Literature values, collected in patent publication US6689905B2, “Stereoisomers of 3-aminotricyclo[2.2.1.0(2.6)]heptane-1,3-dicarboxylic acid” (Wyeth, priority 2001, dated 2004).

Target: type 2 mGlu receptors (Homo sapiens, UniProt Q14416)
Conditions: literature description

type 2 mGlu receptors, sequence (Q14416 19-872): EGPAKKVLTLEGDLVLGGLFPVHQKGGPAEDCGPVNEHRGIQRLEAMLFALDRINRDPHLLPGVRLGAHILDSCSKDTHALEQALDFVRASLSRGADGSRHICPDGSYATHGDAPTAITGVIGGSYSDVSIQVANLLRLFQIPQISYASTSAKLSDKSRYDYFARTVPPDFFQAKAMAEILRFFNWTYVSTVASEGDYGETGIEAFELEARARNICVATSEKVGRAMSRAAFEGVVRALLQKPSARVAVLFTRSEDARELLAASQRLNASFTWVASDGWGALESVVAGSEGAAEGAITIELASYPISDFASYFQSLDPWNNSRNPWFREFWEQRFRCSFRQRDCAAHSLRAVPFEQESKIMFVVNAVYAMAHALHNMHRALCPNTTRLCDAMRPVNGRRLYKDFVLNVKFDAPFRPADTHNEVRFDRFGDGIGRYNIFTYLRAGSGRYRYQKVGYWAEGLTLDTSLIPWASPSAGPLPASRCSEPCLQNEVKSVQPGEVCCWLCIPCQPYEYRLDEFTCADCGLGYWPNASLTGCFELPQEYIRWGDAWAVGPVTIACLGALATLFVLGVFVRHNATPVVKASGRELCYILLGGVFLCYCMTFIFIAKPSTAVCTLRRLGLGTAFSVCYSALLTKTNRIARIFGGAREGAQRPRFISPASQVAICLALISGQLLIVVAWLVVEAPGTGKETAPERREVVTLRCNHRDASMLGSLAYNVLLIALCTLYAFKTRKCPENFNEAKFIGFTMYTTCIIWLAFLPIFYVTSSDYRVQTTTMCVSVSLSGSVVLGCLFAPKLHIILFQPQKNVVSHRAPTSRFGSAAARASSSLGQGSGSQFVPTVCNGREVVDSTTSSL

functional character at type 2 mGlu receptors: agonists
Structure (SMILES): NC1(C(=O)O)CC2CCC1C2C(=O)O (stereo not drawn) [ABHD-I, 2-endo-aminobicyclo[2.2.1]heptane-2-exo-7-anti-dicarboxylic acid]
